Measurements reported in patent US20250230193A1, “CYCLIC COMPOUND HAVING SELECTIVE KRAS INHIBITORY EFFECT ON HRAS AND NRAS” (CHUGAI SEIYAKU KABUSHIKI KAISHA, priority 2022, published 2025).
Where a SMILES comes first, the peptide text is derived from it. Bridges are numbered along the chain shown (N, C = ends). [ ]: non-standard residue; d: D form. The star is where a group is joined. hPhe(3-Cl-4-CF3) = N[C@@H](CCc1ccc(C(F)(F)F)c(Cl)c1)C(=O)O; NPrPhe(4-CF3) = CCCN[C@@H](Cc1ccc(C(F)(F)F)cc1)C(=O)O; NEtPhe(4-CF3) = CCN[C@@H](Cc1ccc(C(F)(F)F)cc1)C(=O)O; hPhe(3,4-Cl2) = N[C@@H](CCc1ccc(Cl)c(Cl)c1)C(=O)O; Abu(4,4,4-F3) = N[C@@H](CC(F)(F)F)C(=O)O; NMeGly(cPent) = CN[C@H](C(=O)O)C1CCCC1; cisHyp = O=C(O)[C@@H]1C[C@H](O)CN1; Hyp = O=C(O)[C@@H]1C[C@@H](O)CN1; NMeD = CN[C@@H](CC(=O)O)C(=O)O; NMeL = CN[C@@H](CC(C)C)C(=O)O; Morpholide = C1CN(*)CCO1; Ac5c = NC1(C(=O)O)CCCC1; Abu = CC[C@H](N)C(=O)O; Sar = CNCC(=O)O

Assays:
[1] = target: GDP-bound HRAS wild-type protein (Homo sapiens, UniProt P01112); assay: Binding to HRAS by surface plasmon resonance (SPR), Single Cycle Kinetics; settings: KD ratio HRAS/KRAS, SPR
[2] = target: GDP-bound NRAS wild-type protein (Homo sapiens, UniProt P01111); assay: Binding to NRAS by surface plasmon resonance (SPR), Single Cycle Kinetics; settings: KD ratio NRAS/KRAS, SPR
GDP-bound NRAS wild-type protein, sequence (P01111 whole entry): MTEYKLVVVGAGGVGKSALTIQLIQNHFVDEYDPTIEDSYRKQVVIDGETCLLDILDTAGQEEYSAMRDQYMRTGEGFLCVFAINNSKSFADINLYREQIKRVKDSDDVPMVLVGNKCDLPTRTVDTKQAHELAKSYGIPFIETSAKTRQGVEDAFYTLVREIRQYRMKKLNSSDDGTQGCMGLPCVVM

GDP-bound HRAS wild-type protein, sequence (P01112 whole entry): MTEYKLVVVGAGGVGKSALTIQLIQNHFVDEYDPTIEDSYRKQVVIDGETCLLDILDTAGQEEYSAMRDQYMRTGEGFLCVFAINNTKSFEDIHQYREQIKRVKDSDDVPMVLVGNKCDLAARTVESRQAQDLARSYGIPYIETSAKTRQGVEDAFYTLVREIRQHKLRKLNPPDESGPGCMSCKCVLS

Compound	HRAS/KRAS (ratio of KD for GDP-bound HRAS wild-type to KD for KRAS) [1]	NRAS/KRAS (ratio of KD for GDP-bound NRAS wild-type to KD for KRAS) [2]
CC[C@H](C)[C@@H]1NC(=O)[C@H](CC(C)C)N(C)C(=O)C[C@@H](C(=O)N2CCOCC2)N(C)C(=O)[C@H](C2CCCC2)N(C)C(=O)C2(CCCC2)NC(=O)[C@@H]2CCCN2C(=O)[C@H](CCc2ccc(Cl)c(Cl)c2)NC(=O)CN(C)C(=O)[C@H](Cc2ccc(C(F)(F)F)cc2)N(CC)C(=O)CN(C)C(=O)CN(C)C1=O [PP0237] ([NMeL]I[Sar][Sar][NEtPhe(4-CF3)][Sar][hPhe(3,4-Cl2)]P[Ac5c][NMeGly(cPent)][NMeD]-Morpholide; lactam N-11)	C (A compound having a KD ratio of 0.1 or more and less than 3 is denoted as C)	B (a compound having 3 or more and less than 10 is denoted as B)
CCCN1C(=O)[C@@H]2CCN2C(=O)[C@H](C)N(C)C(=O)[C@H]([C@@H](C)CC)NC(=O)[C@H](CC(C)C)N(C)C(=O)C[C@@H](C(=O)N2CCOCC2)N(C)C(=O)[C@H](C2CCCC2)N(C)C(=O)C2(CCCC2)NC(=O)[C@@H]2C[C@@H](O)CN2C(=O)[C@H](CCc2ccc(C(F)(F)F)c(Cl)c2)NC(=O)CN(C)C(=O)[C@@H]1Cc1ccc(C(F)(F)F)cc1 [PP0239]	B (a compound having 3 or more and less than 10 is denoted as B)	C (A compound having a KD ratio of 0.1 or more and less than 3 is denoted as C)
CCCN1C(=O)CN(C)C(=O)CN(C)C(=O)[C@H]([C@@H](C)CC)NC(=O)[C@H](CC(C)C)N(C)C(=O)C[C@@H](C(=O)N2CCOCC2)N(C)C(=O)[C@H](C2CCCC2)N(C)C(=O)C2(CCCC2)NC(=O)[C@@H]2C[C@H](O)CN2C(=O)[C@H](CCc2ccc(C(F)(F)F)c(Cl)c2)NC(=O)CN(C)C(=O)[C@@H]1Cc1ccc(C(F)(F)F)cc1 [PP0240] ([NMeL]I[Sar][Sar][NPrPhe(4-CF3)][Sar][hPhe(3-Cl-4-CF3)][cisHyp][Ac5c][NMeGly(cPent)][NMeD]-Morpholide; lactam N-11)	C (A compound having a KD ratio of 0.1 or more and less than 3 is denoted as C)	B (a compound having 3 or more and less than 10 is denoted as B)
CCCN1C(=O)CN(C)C(=O)CN(C)C(=O)[C@H]([C@@H](C)CC)NC(=O)[C@H](CC(C)C)N(C)C(=O)C[C@@H](C(=O)N2CCOCC2)N(C)C(=O)[C@H](C2CCCC2)N(C)C(=O)C2(CCCC2)NC(=O)[C@@H]2C[C@@H](O)CN2C(=O)[C@H](CCc2ccc(C(F)(F)F)c(Cl)c2)NC(=O)CN(C)C(=O)[C@@H]1Cc1ccc(C(F)(F)F)cc1 [PP0241] ([NMeL]I[Sar][Sar][NPrPhe(4-CF3)][Sar][hPhe(3-Cl-4-CF3)][Hyp][Ac5c][NMeGly(cPent)][NMeD]-Morpholide; lactam N-11)	C (A compound having a KD ratio of 0.1 or more and less than 3 is denoted as C)	B (a compound having 3 or more and less than 10 is denoted as B)
CCCN1C(=O)CN(C)C(=O)CN(C)C(=O)[C@H]([C@@H](C)CC)NC(=O)[C@H](CC(C)C)N(C)C(=O)C[C@@H](C(=O)N2CCOCC2)N(C)C(=O)[C@H](C2CCCC2)N(C)C(=O)C2(CCCC2)NC(=O)[C@@H]2C[C@H](OCC)CN2C(=O)[C@H](CCc2ccc(C(F)(F)F)c(Cl)c2)NC(=O)CN(C)C(=O)[C@@H]1Cc1ccc(C(F)(F)F)cc1 [PP0243] ([NMeL]I[Sar][Sar][NPrPhe(4-CF3)][Sar][hPhe(3-Cl-4-CF3)][cisHyp](Et)[Ac5c][NMeGly(cPent)][NMeD]-Morpholide; lactam N-11)	C (A compound having a KD ratio of 0.1 or more and less than 3 is denoted as C)	B (a compound having 3 or more and less than 10 is denoted as B)
CCCN1C(=O)CN(C)C(=O)CN(C)C(=O)[C@H](CC)NC(=O)[C@H](CC(C)C)N(C)C(=O)C[C@@H](C(=O)N2CCOCC2)N(C)C(=O)[C@H](C2CCCC2)N(C)C(=O)C2(CCCC2)NC(=O)[C@@H]2CCCN2C(=O)[C@H](CCc2ccc(C(F)(F)F)c(Cl)c2)NC(=O)CN(C)C(=O)[C@@H]1Cc1ccc(C(F)(F)F)cc1 [PP0248] ([NMeL][Abu][Sar][Sar][NPrPhe(4-CF3)][Sar][hPhe(3-Cl-4-CF3)]P[Ac5c][NMeGly(cPent)][NMeD]-Morpholide; lactam N-11)	B (a compound having 3 or more and less than 10 is denoted as B)	B (a compound having 3 or more and less than 10 is denoted as B)
CCCN1C(=O)CN(C)C(=O)CN(C)C(=O)[C@H](CC(F)(F)F)NC(=O)[C@H](CC(C)C)N(C)C(=O)C[C@@H](C(=O)N2CCOCC2)N(C)C(=O)[C@H](C2CCCC2)N(C)C(=O)C2(CCCC2)NC(=O)[C@@H]2CCCN2C(=O)[C@H](CCc2ccc(C(F)(F)F)c(Cl)c2)NC(=O)CN(C)C(=O)[C@@H]1Cc1ccc(C(F)(F)F)cc1 [PP0249] ([NMeL][Abu(4,4,4-F3)][Sar][Sar][NPrPhe(4-CF3)][Sar][hPhe(3-Cl-4-CF3)]P[Ac5c][NMeGly(cPent)][NMeD]-Morpholide; lactam N-11)	C (A compound having a KD ratio of 0.1 or more and less than 3 is denoted as C)	B (a compound having 3 or more and less than 10 is denoted as B)
